# ChEMBL document CHEMBL1132957, “Design of potent dicyclic (4-10/5-8) gonadotropin releasing hormone (GnRH) antagonists” (J Med Chem, 2000)
# pKi: −log10 of the molar value. Calls of active or inactive are those of the source. The calls are words filed in the database; no cut-off is given here. Positions of bridges follow the written chain, without caps; N, C: chain ends. Non-standard residues stand in square brackets, D forms with d. Residues, ends and D or L forms follow the SMILES beside them. dPhe(4-Cl) = N[C@H](Cc1ccc(Cl)cc1)C(=O)O; d2Nal = N[C@H](Cc1ccc2ccccc2c1)C(=O)O; d3Pal = N[C@H](Cc1cccnc1)C(=O)O; Dab = NCC[C@H](N)C(=O)O; Dap = NC[C@H](N)C(=O)O
# Experiments:
# [1] = target: T1, Gonadotropin-releasing hormone receptor (Rattus norvegicus, UniProt P30969); assay: Competitive radioligand binding assay, in human HEK293 cells stably transfected with the rat Gonadotropin-releasing hormone receptor; assay type: cell-based
# T1 sequence (P30969 whole entry): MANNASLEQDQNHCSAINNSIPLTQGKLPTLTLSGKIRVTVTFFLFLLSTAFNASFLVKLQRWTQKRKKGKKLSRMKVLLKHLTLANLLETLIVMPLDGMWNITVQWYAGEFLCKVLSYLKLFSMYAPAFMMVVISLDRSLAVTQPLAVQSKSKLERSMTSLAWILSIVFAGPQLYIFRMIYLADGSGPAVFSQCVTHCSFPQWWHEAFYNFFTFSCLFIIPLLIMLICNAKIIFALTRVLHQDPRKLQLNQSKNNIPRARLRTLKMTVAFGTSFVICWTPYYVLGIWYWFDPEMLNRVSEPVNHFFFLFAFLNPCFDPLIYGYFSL
# [2] = tested on: Rattus norvegicus; assay: Evaluated for the ovulation effects in the rat by administering the drug at the doses (10 ug); 5/5; assay type: functional, organism-based
# [3] = tested on: Rattus norvegicus; assay: Evaluated for the ovulation effects in the rat by administering the drug at the doses (25 ug); 0/8; assay type: functional, organism-based
# [4] = tested on: Rattus norvegicus; assay: Evaluated for the ovulation effects in the rat by administering the drug at the doses (10 ug); 4/6; assay type: functional, organism-based
# [5] = tested on: Rattus norvegicus; assay: Evaluated for the ovulation effects in the rat by administering the drug at the doses (5 ug); 3/3; assay type: functional, organism-based
# [6] = tested on: Rattus norvegicus; assay: Evaluated for the ovulation effects in the rat by administering the drug at the doses (25 ug); 0/5; assay type: functional, organism-based
# [7] = tested on: Rattus norvegicus; assay: Evaluated for the ovulation effects in the rat by administering the drug at the doses (25 ug); 4/5; assay type: functional, organism-based
# [8] = tested on: Rattus norvegicus; assay: Evaluated for the ovulation effects in the rat by administering the drug at the doses (50 ug); 0/7; assay type: functional, organism-based
# [9] = tested on: Rattus norvegicus; assay: Evaluated for the ovulation effects in the rat by administering the drug at the doses (25 ug); 0/4; assay type: functional, organism-based
# [10] = tested on: Rattus norvegicus; assay: Evaluated for the ovulation effects in the rat by administering the drug at the doses (2.5 ug); 14/16; assay type: functional, organism-based
# [11] = tested on: Rattus norvegicus; assay: Evaluated for the ovulation effects in the rat by administering the drug at the doses (10 ug); 1/6; assay type: functional, organism-based
# [12] = tested on: Rattus norvegicus; assay: Evaluated for the ovulation effects in the rat by administering the drug at the doses (25 ug); 0/3; assay type: functional, organism-based
compound,measurement,setting,value
CC(=O)N[C@H](Cc1ccc2ccccc2c1)C(=O)N[C@H](Cc1ccc(Cl)cc1)C(=O)N[C@H](Cc1cccnc1)C(=O)N[C@H]1CC(=O)NC[C@@H](C(N)=O)NC(=O)[C@@H]2CCCN2C(=O)[C@@H]2CCCNC(=O)[C@H](Cc3ccccc3)NC(=O)CC[C@H](NC1=O)C(=O)N[C@H](CCCN=C(N)N)C(=O)N[C@@H](CC(C)C)C(=O)N2,pKi,[1],9.57
same,Activity,[2],inactive
same,Activity,[3],Active
CC(=O)N[C@H](Cc1ccc2ccccc2c1)C(=O)N[C@H](Cc1ccc(Cl)cc1)C(=O)N[C@H](Cc1cccnc1)C(=O)N[C@H]1CC(=O)NC[C@@H](C(N)=O)NC(=O)[C@@H]2CCCN2C(=O)[C@@H]2CCNC(=O)CNC(=O)C[C@H](NC1=O)C(=O)N[C@H](CCCN=C(N)N)C(=O)N[C@@H](CC(C)C)C(=O)N2,pKi,[1],9.46
same,Activity,[4],Weak activity
same,Activity,[5],inactive
same,Activity,[6],Active
CC[C@H](NC(C)=O)C(=O)N[C@@H](Cc1ccc(Cl)cc1)C(=O)N[C@@H](Cc1c[nH]c2ccccc12)C(=O)N[C@@H](CC(=O)O)C(=O)N[C@@H]1CCC(=O)NCCCC[C@@H](C(=O)N2CCC[C@@H]2C(=O)N[C@@H](C)C(N)=O)NC(=O)[C@H](CC(C)C)NC(=O)[C@@H](CCCN=C(N)N)NC1=O (stereo in doubt; 13),Activity,[7],Weak activity
same,Activity,[8],Active
CC(=O)N[C@H](Cc1ccc2ccccc2c1)C(=O)N[C@H](Cc1ccc(Cl)cc1)C(=O)N[C@H](Cc1cccnc1)C(=O)N[C@H]1CC(=O)NC[C@@H](C(N)=O)NC(=O)[C@@H]2CCCN2C(=O)[C@@H]2CCNC(=O)[C@H](Cc3ccccc3)NC(=O)CC[C@H](NC1=O)C(=O)N[C@H](CCCNC(N)=O)C(=O)N[C@@H](CC(C)C)C(=O)N2,pKi,[1],9.70
same,Activity,[2],inactive
same,Activity,[9],Active
CC(=O)N[C@H](Cc1ccc2ccccc2c1)C(=O)N[C@H](Cc1ccc(Cl)cc1)C(=O)N[C@H](Cc1cccnc1)C(=O)N[C@H]1CC(=O)NC[C@@H](C(N)=O)NC(=O)[C@@H]2CCCN2C(=O)[C@@H]2CCNC(=O)CNC(=O)CC[C@H](NC1=O)C(=O)N[C@H](CCCN=C(N)N)C(=O)N[C@@H](CC(C)C)C(=O)N2 (Ac-[d2Nal][dPhe(4-Cl)][d3Pal]DE[dR]L[Dab]P[Dap]-NH2; lactam 4-10; linker 5-8 via G),pKi,[1],9.80
same,Activity,[10],Weak activity
same,Activity,[11],Weak activity
same,Activity,[12],Active
